Measurements from publication PMC11012799 (Molecules, 2024).
Converted amounts (≈) assume the structure as drawn.

Key:
[1] = test system: Klebsiella pneumoniae ATCC 13883; assay: MIC, two-fold microdilution (EUCAST), K. pneumoniae reference strain; assay type: cell-based; conditions: Klebsiella pneumoniae, ATCC13883, 18 h, read-out: MIC (µM) Klebsiella pneumoniae ATCC 13883
Excerpt: (§1) A panel of reference bacteria, including Escherichia coli NCTC 8196, Staphylococcus aureus ATCC 6538, Klebsiella pneumoniae ATCC 13883, and Pseudomonas aeruginosa NCTC 6749, was used to assess the antibacterial activity of the nine tested aziridine phosphines (1–4) and aziridine phosphine oxides (5–9). The two-fold microdilution method, following EUCAST guidelines, was used to determine a minimal inhibitory concentration (MIC) of each compound, as presented in Table S1.
(§2) Antibacterial activity: The in vitro antibacterial activity of nine tested aziridine phosphines (1–4) and aziridine phosphine oxides (5–9) was evaluated against reference bacterial strains (E. coli NCTC 8196, S. aureus ATCC 6538, K. pneumoniae ATCC 13883, P. aeruginosa NCTC 6749) and 12 S. aureus clinical isolates, including two methicillin-resistant isolates (MRSA, D15 and D17) obtained from infected patients hospitalized at the Oncological Hospital in Lodz (Poland). All strains were kept frozen at −80 °C in Tryptic Soy Broth with 15% glycerol. The minimal inhibitory concentration (MIC) is defined as the lowest concentration of the compound that prevents visible growth of bacteria using the microdilution method followed the EUCAST guidelines. Each compound was added to 96-well microplates in two-fold dilutions at concentrations from 3.125 to 100 μM in Mueller–Hinton broth. […] Bacterial culture was added into wells at a density of 5 × 10^5 CFU mL^−1, and plates were incubated at 37 °C for 18 h. As a positive control, an untreated bacterial culture was used, and a clear culture medium served as a negative control. The optical density at OD600 was measured using the SpectraMax i3 Multi-Mode Platform (Molecular Devices, San Jose, CA, USA). Ciprofloxacin hydrochloride (CIP, Sigma-Aldrich, Darmstadt, Germany) was used as a reference antimicrobial drug.

[2] = test system: clinical S. aureus strains; assay: MIC, microdilution, 12 clinical S. aureus strains; assay type: cell-based, Staphylococcus aureus; conditions: panel of 12 clinical isolates (naso-pharynx, ulcers/furuncles, bones), highest tested concentration 100 µM
Excerpt: as §1, §2

[3] = test system: Pseudomonas aeruginosa NCTC 6749; assay: MIC, two-fold microdilution (EUCAST), P. aeruginosa reference strain; assay type: cell-based; conditions: Pseudomonas aeruginosa, NCTC6749, 18 h, read-out: MIC (µM) Pseudomonas aeruginosa NCTC 6749
Excerpt: as §1, §2

HeLa cells = assay: LDH release assay; assay type: cell-based, human; conditions: 24 h, highest concentration of 50 µM
Description: In order to distinguish whether the cell viability inhibition was attributed to growth inhibition or cytotoxicity manifested by cell membrane disruption, the lactate dehydrogenase (LDH) release assay was conducted. LDH is a cytoplasmic enzyme rapidly released from cells upon membrane damage, a key feature of apoptosis, necrosis, and other forms of cell death. The released enzyme can be detected due to its ability to convert lactate into pyruvate and NADH, which is then specifically determined by a colorimetric assay.
Figure 3 The effects of 5 (blue) and 7 (green) on LDH release from HeLa cells. The cells were treated with compounds at a concentration range of 3.125–50 μM for 24 h at 37 °C and 5% CO2. Data are presented as the mean LDH release (%) ± SD of two experiments compared to untreated control (red). Statistical significance measured by two-way analysis of variance (ANOVA) is indicated by asterisks: (*) p < 0.05.
LDH release assay: The activity of 5 and 7 on cell membrane destabilization was determined with the CytoTox 96®Non-Radioactive Cytotoxicity Assay (Promega, Madison, WI, USA). […] After incubation, Stop Solution (50 μL) was added to each well, and the absorbance was measured at 490 nm using the SpectraMax i3 Multi-Mode Platform (Molecular Devices, San Jose, CA, USA). […]

Structure (SMILES) | MIC [1] [µM] | MIC ([2]; Staphylococcus aureus) [µM] | MIC [2] [µM] | MIC [3] [µM] | LDH release compared to untreated control (HeLa cells)
CC(C)C[C@H]1CN1c1ccccc1P(=O)(c1ccccc1)c1ccccc1 [Compound 7] | > 100 | 100 (≈ 37.5 µg/mL) | 100 (≈ 37.5 µg/mL) | > 100 | significant LDH release
CC(C)[C@@H]1CN1c1ccccc1P(=O)(c1ccccc1)c1ccccc1 [Compound 5] | > 100 | 100 (≈ 36.1 µg/mL) | 100 (≈ 36.1 µg/mL) | > 100 | significant LDH release
